# Assay results: patent US20160058743A1, “METHODS FOR TREATING SENSORIMOTOR IMPAIRMENTS ASSOCIATED WITH CERTAIN TYPES OF STROKE USING AMINOPYRIDINES” (ACORDA THERAPEUTICS, INC., priority 2013, published 2016)
# Where “and” joins values, the source holds several entries; their conditions need not be identical. Equal values may be shown once.
# System: rats with middle cerebral artery occlusion (MCAO)
# Experiment: Cylinder test (overall asymmetry, total movement) after MCAO
# Assay type: in vivo, Sprague Dawley rats
# Set-up: Cylinder Test (Total Movement) / Cylinder Test (Total Movement), Mean: unit not given here
# Settings: for Cylinder Test (Total Movement) / Cylinder Test Score (Overall Asymmetry (%)): individual animals and group Mean; for Cylinder Test (Total Movement), Mean: N 15
# Text: In particular, the MCAO model in Sprague Dawley rats that was utilized in the experiments presented below mimics the conditions in human ischemic stroke. In this model, focal cerebral infarcts were made by permanent occlusion of the proximal right middle cerebral artery (MCA) using a modification of the method of Tamura et al. (No To […] 1986; 38:747-51). Briefly, the temporalis muscle was bisected and reflected through an incision made midway between the eye and the ear canal. The proximal MCA was exposed through a subtemporal craniectomy without removing the zygomatic arch and without transecting the facial nerve. […] In this experiment, Sprague Dawley rats were anesthetized, subjected to a surgery resulting in middle cerebral artery occlusion (MCAO), treated with and without 4-aminopyridine and behavioral assessments were performed as described below. Treatment was initiated at 4 weeks after stroke. Dosing and Treatment: Rats were treated in accordance with the dosing schedule shown in Tables 2A, 2B, 3 and FIG. 2, with each Phase being a two week period of time. A solution of 4-AP was used in this experiment. […] Vehicle control treatment was WFI delivered at 2 mL/kg by gastric gavage. […] Starting on day 30 after MCAO (Day 30, start of phase 1), the animals received gavage dosing of solutions (2 mL/kg) approximately 12 hours apart, for a total of five doses. The same schedule was repeated with different treatment on Day 44 and Day 58 for phase 2 and 3 of the study, respectively. Animals were not treated during the 10 days between phases (washout period). Treatment groups: Dosing was started 4 weeks after MCAO surgery. During these 4 weeks, weekly behavioral assessments, as defined below, were performed. […] Animals were given the first dose and behavioral assessments were performed starting 60 minutes after dosing. Animals then received the second dose that day at the appropriate time and b.i.d (preferably every 12 hours) thereafter for 2 more days (3 total days of dosing, 5 total doses). One hour after the 5th dose, animals were subjected to behavioral assessments as defined below. Following the final behavioral assessment, drug was withdrawn for 10 or 11 days, behavior was re-assessed, and then animals were re-challenged with a cross-over treatment (Phase 2 of Table 2B) as described in Tables 2A, 2B and 3, followed by the same behavioral testing and dosing regimen. This cross-over was repeated one more time as well (Phase 3 of Table 2B) (see FIG. 2). Cylinder Test: Evaluation was performed at Day -1 (pre-operation), Day 7, Day 21, Day 30, Day 32, Day 44, Day 46, Day 58, Day 60. This test assessed limb use asymmetry. Rats were placed in a transparent cylinder (20 cm in diameter and 30 cm in height) for 3-6 minutes. A mirror was placed behind the cylinder to determine forelimb movements when animal was turned away from the camera. […] Simultaneous use of both left and right forelimbs while contacting the wall during a full rear was also scored. A total number of 20 forelimb placings were counted during a trial. Data was expressed in terms of percent use of the non-impaired and or impaired forelimb relative to the total number of limb use observations for wall movements.
compound,measurement,setting,value
"Nc1ccncc1 [4-AP, 4-aminopyridine]",Effect on body symmetry and coordination (cylinder test),"Example 2, 0.63 or 2 mg/kg b.i.d. p.o., started 4 weeks post MCAO, dose-dependent, reversible",effective to improve body symmetry and coordination
same,Cylinder Test (Total Movement),"Group 1, D 7",131.00 and 130.00 and 77.00 and 57.00 (2×) and 139.00 and 35.00 and 15.00 and 32.00 and 14.00 and 63.00
same,Cylinder Test (Total Movement),"Group 1, D 7, mean",58.07
same,Cylinder Test (Total Movement),"Group 1, D 21",51.00 and 98.00 and 31.00 and 67.00 and 172.00 and 28.00 and 70.00 and 8.00 and 52.00 and 22.00 and 13.00
same,Cylinder Test (Total Movement),"Group 1, D 21, mean",45.67
same,Cylinder Test (Total Movement),"Group 1, D 30",0.00 (3×) and 75.00 and 2.00 and 10.00 (2×) and 6.00 and 13.00 and 12.00 and 4.00
same,Cylinder Test (Total Movement),"Group 1, D 32",11.00 and 54.00 and 22.00 and 39.00 and 10.00 and 8.00 and 14.00 and 15.00 and 0.00 (2×) and 38.00
same,Cylinder Test (Total Movement),"Group 1, D 44",28.00 and 93.00 and 48.00 and 57.00 and 47.00 and 9.00 and 123.00 and 11.00 and 5.00 and 66.00
same,Cylinder Test (Total Movement),"Group 1, D 46",11.00 and 47.00 and 43.00 and 48.00 and 46.00 and 12.00 and 63.00 and 4.00 and 0.00 and 13.00
same,Cylinder Test (Total Movement),"Group 1, D 58",14.00 and 137.00 and 18.00 and 81.00 and 53.00 and 16.00 and 74.00 and 0.00 and 11.00 and 26.00
same,Cylinder Test (Total Movement),"Group 1, D 58, mean",36.47
same,Cylinder Test (Total Movement),"Group 1, D 60",14.00 and 81.00 and 33.00 and 44.00 and 28.00 and 9.00 and 85.00 and 0.00 and 3.00 and 6.00
same,Cylinder Test (Total Movement),"Group 1, D 60, mean",27.40
same,Cylinder Test (Total Movement),"Group 1, D −1",64.00 and 152.00 and 81.00 and 52.00 and 100.00 and 53.00 and 47.00 and 14.00 and 31.00 and 23.00 and 49.00
same,Cylinder Test (Total Movement),"Group 1, D −1, mean",63.07
same,Cylinder Test Score (Overall Asymmetry (%)),"Group 2, D 7",55.47% and 28.85% and 25.00% and 51.56% and 50.00% and 58.33% and 42.36% and 28.57% and 43.14% and 24.32% and 14.29%
same,Cylinder Test Score (Overall Asymmetry (%)),"Group 2, D 7, mean",38.14%
same,Cylinder Test Score (Overall Asymmetry (%)),"Group 2, D 21",56.25% and −23.17% and 66.67% (2×) and 49.06% and 46.43% and 25.32% and 47.83% and 22.22% and 17.86% and −25.00%
same,Cylinder Test Score (Overall Asymmetry (%)),"Group 2, D 21, mean",27.16%
same,Cylinder Test Score (Overall Asymmetry (%)),"Group 2, D 30",51.72% and 0.00% and 4.17% and 56.64% and 27.59% and 75.00% and 20.99% and 27.50% and 16.67% and 20.00%
same,Cylinder Test Score (Overall Asymmetry (%)),"Group 2, D 32",63.29% and 18.18% and 33.33% and 54.78% and 22.73% and 62.50% and 16.00% and 20.00% and 3.85% and 27.66% and −33.33%
same,Cylinder Test Score (Overall Asymmetry (%)),"Group 2, D 44",58.33% and 14.04% and 38.96% and 52.53% and 11.54% and 54.93% and 7.14% and 18.18% and −27.08% and 17.65% and −20.00%
same,Cylinder Test Score (Overall Asymmetry (%)),"Group 2, D 44, mean",14.61%
same,Cylinder Test Score (Overall Asymmetry (%)),"Group 2, D 46",28.57% and 34.85% and 31.40% and 19.05% and 29.33% and 40.35% and 46.15% and 16.95% and 42.86% and 2.86%
same,Cylinder Test Score (Overall Asymmetry (%)),"Group 2, D 46, mean",24.91%
same,Cylinder Test Score (Overall Asymmetry (%)),"Group 2, D 58",29.17% and 50.00% and 66.67% and 54.76% and 30.00% and 88.00% and −7.69% and −16.67% and 62.50%
same,Cylinder Test Score (Overall Asymmetry (%)),"Group 2, D 60",64.00% and 20.00% and 14.29% and 62.50% and 10.00% and 76.47% and 13.95% and 0.00% (2×) and −100.00%
same,Cylinder Test Score (Overall Asymmetry (%)),"Group 2, D −1",−15.58% and −1.96% and −24.39% and 2.38% and 0.00% and 1.65% and −2.20% and −7.58% and 21.05% and 8.45% and −2.70% and −5.66%
same,Cylinder Test Score (Overall Asymmetry (%)),"Group 2, D −1, mean",−4.05%
same,"Cylinder Test (Total Movement), Mean","Group 3, D 44 after MCAO",19.13
same,"Cylinder Test (Total Movement), Mean","Group 3, D 46 after MCAO",18.73
same,"Cylinder Test (Total Movement), Mean","Group 3, D 58 after MCAO",32.33
